Experimental data: patent publication US4935240A, “Benzoylaminophenoxybutanoic acid derivatives” (Ono Pharmaceutical Co., Ltd., priority 1987, dated 1990)

Target: 5α-reductase
Experiment: 5α-reductase inhibitory activity in vitro
Format: biochemical
Settings: rat prostate enzyme, [4-C14]testosterone + NADPH, 60 mins at 37° C.
Method: 5α-reductase inhibitory activity in vitro
Inhibitory activity on 5α-reductase in vitro was measured by the following test system.
The test was carried out by being referred to the method of J. Shimazaki et al [See Endocrinol, Japan., 18, 179 (1971)].
Male rats' prostate (4g) was homogenized with its 3-fold volume of 0.1 M HEPES buffer (pH 7.4) including 0.25 M cane sugar, and was centrifuged at 3000 r.p.m. for 10 mins.
The precipitate was suspended into the buffer solution described above (10 ml), and the suspension was centrifuged at 3000 r.p.m. for 5 mins. The resulting precipitated was suspended in the buffer solution (3 ml) described above and was used as a sauce of enzyme.
A reaction mixture (total volume 0.1 ml) of [4-c^14 ]testosterone (1.5n mol, 1.5×10^5 cpm), NADPH (0.5 μmol), enzyme solution (0.03 ml) described above and several kinds of concentration of the compounds in the present invention was incubated for 60 mins at 37° C. Enzyme reaction was quenched by addition of a mixture (0.4 ml) of chloroform and methanol (1:2), and the mixture was centrifuged at 2000 r.p.m. for 3 mins. The supernatant (50 μl) was spotted on silica gel thin layer plate. The spot on the plate was developed with a mixture of chloroform, methanol and acetic acid (99.2:0.6:0.2). Radioactivity of dihydrotestosterone generated on the plate was measured by TLC scanner of radio-autography and inhibitory ratio was calculated.

Row | SMILES | IC50
1 | O=C(O)CCCOc1ccccc1NC(=O)c1ccc(OCc2ccccc2)cc1 [1(a), 4-[2-(4-benzyloxybenzoylamino)phenoxy]butanoic acid] | 200 nM
2 | Cc1ccc(COc2ccc(C(=O)Nc3ccccc3OCCCC(=O)O)cc2)cc1 [1(b), 4-[2-[4-(4-methylphenylmethoxy)benzoylamino]phenoxy]butanoic acid] | 330 nM
3 | CCc1ccc(COc2ccc(C(=O)Nc3ccccc3OCCCC(=O)O)cc2)cc1 [1(c), 4-[2-[4-(4-ethylphenylmethoxy)benzoylamino]phenoxy]butanoic acid] | 320 nM
4 | CCCc1ccc(COc2ccc(C(=O)Nc3ccccc3OCCCC(=O)O)cc2)cc1 [1(d), 4-[2-[4-(4-propylphenylmethoxy)benzoylamino]phenoxy]butanoic acid] | 130 nM
5 | O=C(O)CCCOc1ccccc1NC(=O)c1ccc(OCCCc2ccccc2)cc1 [1(f), 4-[2-[4-(3-phenylpropoxy)benzoylamino]phenoxy]butanoic acid] | 200 nM
6 | O=C(O)CCCOc1ccccc1NC(=O)c1ccc(OCCCCc2ccccc2)cc1 [1(g), 4-[2-[4-(4-phenylbutoxy)benzoylamino]phenoxy]butanoic acid] | 440 nM
7 | CCCc1ccc(CN(Cc2ccc(CCC)cc2)c2ccc(C(=O)Nc3ccccc3OCCCC(=O)O)cc2)cc1 [2(a), 4-[2-[4-[N, N-bis(4-propylbenzyl)amino]benzoylamino]phenoxy] butanoic acid] | 23 nM
8 | Cc1cc(N(Cc2ccc(CC(C)C)cc2)Cc2ccc(CC(C)C)cc2)ccc1C(=O)Nc1ccccc1OCCCC(=O)O [2(b), 4-[2-[4-[N, N-bis(4-isobutylbenzyl)amino]-2-methylbenzoylamino]phenoxy]butanoic] | 25 nM
9 | CCCCCN(CCCCC)c1ccc(C(=O)Nc2ccccc2OCCCC(=O)O)c(C)c1 [2(c), 4-[2-[4-[N, N-dipenthylamino)-2-methylbenzoylamino]phenoxy] butanoic acid] | 300 nM
10 | Cc1cc(N(CCCCc2ccccc2)CCCCc2ccccc2)ccc1C(=O)Nc1ccccc1OCCCC(=O)O [2(f), 4-[2-[4-[N, N-bis(4-phenylbutyl)amino]-2-methylbenzoylamino]phenoxy]butanoic] | 170 nM
11 | Cc1cc(N(Cc2ccc(F)cc2F)Cc2ccc(F)cc2F)ccc1C(=O)Nc1ccccc1OCCCC(=O)O [2(h)] | 140 nM
12 | CCCc1ccc(CN(C(=O)c2ccc(CCC)cc2)c2ccc(C(=O)Nc3ccccc3OCCCC(=O)O)c(C)c2)cc1 [2(i)] | 150 nM
13 | Cc1cc(N(Cc2ccccc2C(F)(F)F)Cc2ccccc2C(F)(F)F)ccc1C(=O)Nc1ccccc1OCCCC(=O)O [2(j)] | 26 nM
14 | Cc1cc(N(Cc2ccc(C(F)(F)F)cc2)Cc2ccc(C(F)(F)F)cc2)ccc1C(=O)Nc1ccccc1OCCCC(=O)O [2(k), 4-[2-[4-[N,N-bis-(4-trifluoromethylbenzyl)amino]-2-methylbenzoylamino]phenoxy] butanoic] | 580 nM
15 | CCCc1ccc(C(Nc2ccc(C(=O)Nc3ccccc3OCCCC(=O)O)cc2)c2ccc(CCC)cc2)cc1 [2(s), 4-[2-[4-[bis(4-propylphenyl)methylamino]benzoylamino]phenoxy] butanoic acid] | 11 nM
16 | CCCc1ccc(CN(Cc2ccc(CCC)cc2)c2ccc(C(=O)Nc3ccccc3SCCCC(=O)O)c(C)c2)cc1 [3(b), 4-[2-[4-[N,N-bis(4-propylbenzyl)amino]-2-methylbenzoylamino]phenylthio]butanoic] | 25 nM
17 | CCCc1ccc(C(Oc2ccc(C(=O)Nc3ccccc3OCCCC(=O)O)cc2)c2ccc(CCC)cc2)cc1 [4(a), 4-[2-[4-[bis(4-propylphenyl)methoxy]benzoylamino]phenoxy] butanoic acid] | 3 nM
18 | CN(Cc1ccc(C(=O)Nc2ccccc2OCCCC(=O)O)cc1)c1cccc2c1CCCC2 [6(c), 4-[2-[4-[N-methyl-N-(5,6,7,8,- tetrahydronaphthalene-1-yl)aminomethyl]benzoylamino]phenoxy] butanoic acid] | 140 nM
19 | O=C(O)CCCOc1ccccc1NC(=O)c1ccc(OCCCCc2ccccc2)cc1 [Compared compound 2, reference compound] | > 20000 nM
20 | CCCc1ccc(CN(Cc2ccc(CCC)cc2)c2ccc(C(=O)Nc3ccccc3OCCCC(=O)O)c(C)c2)cc1 [Example 2, 4-[2-[2-methyl-4-[N,N-bis(4-propylbenzyl)amino]benzoylamino]phenoxy]butanoic acid] | 11 nM
21 | CCCc1ccc(CN(Cc2ccc(CCC)cc2)c2ccc(C(=O)Nc3ccccc3[S+]([O-])CCCC(=O)O)c(C)c2)cc1 (centres unmarked) [Example 5, 4-[2-[4-[N,N-bis(4-propylbenzyl)amino]-2-methylbenzoylamino]phenylsulfinyl]butanoic acid] | 65 nM

More lines, now with the values ahead:

Row | IC50 | SMILES
22 | 220 nM | CC(C)c1ccc(COc2ccc(C(=O)Nc3ccccc3OCCCC(=O)O)cc2)cc1 [1(e), 4-[2-[4-(4-isopropylphenylmethoxy)benzoylamino]phenoxy]butanoic acid]
23 | 570 nM | Cc1cc(OCc2ccc(CC(C)C)cc2)ccc1C(=O)Nc1ccccc1OCCCC(=O)O [1(h), 4-[2-[4-(4-isobutyphenylmethoxy)-2-methylbenzoylamino]phenoxy]butanoic acid]
24 | 430 nM | Cc1cc(C(=O)Nc2ccccc2OCCCC(=O)O)ccc1OCc1ccc(CC(C)C)cc1 [1(i), 4-[2-[4-(4-isobutyphenylmethoxy)-3-methylbenzoylamino]phenoxy]butanoic acid]
25 | 25 nM | CCCCCN(Cc1ccc(CCC)cc1)c1ccc(C(=O)Nc2ccccc2OCCCC(=O)O)c(C)c1 [2(d)]
26 | 44 nM | CCCc1ccc(CN(C)c2ccc(C(=O)Nc3ccccc3OCCCC(=O)O)c(C)c2)cc1 [2(e), 4-[2-[4-[N-methyl-N-(4-propylbenzyl)amino]-2-methylbenzoylamino]phenoxy]butanoic]
27 | 27 nM | Cc1cc(N(Cc2ccc(C(C)C)cc2)Cc2ccc(C(C)C)cc2)ccc1C(=O)Nc1ccccc1OCCCC(=O)O [2(g), 4-[2-[4-[N, N-bis(4-isopropylbenzyl)amino]-2-methylbenzoylamino]phenoxy] butanoic]
28 | 150 nM | CC(C)Cc1ccc(CNc2ccc(C(=O)Nc3ccccc3OCCCC(=O)O)cc2)cc1 [2(l), 4-[2-[4-(4-isobutylbenzylamino)benzoylamino]phenoxy] butanoic acid]
29 | 120 nM | Cc1cc(NCc2ccc(CC(C)C)cc2)ccc1C(=O)Nc1ccccc1OCCCC(=O)O [2(m), 4-[2-[4-(4-isobutylbenzylamino)-2-methylbenzoylamino]phenoxy] butanoic acid]
30 | 40 nM | CCCc1ccc(CNc2ccc(C(=O)Nc3ccccc3OCCCC(=O)O)c(C)c2)cc1 [2(n), 4-[2-[4-(4-propylbenzylamino)-2-methylbenzoylamino]phenoxy] butanoic acid]
31 | 35 nM | Cc1cc(NC(C)c2ccc(CC(C)C)cc2)ccc1C(=O)Nc1ccccc1OCCCC(=O)O (centres unmarked) [2(o), 4-[2-[4-[1-(4-isobutylphenyl)ethylamino]-2-methylbenzoylamino]pehnoxy]butanoic]
32 | 80 nM | Cc1cc(NCc2ccc(C(C)C)cc2)ccc1C(=O)Nc1ccccc1OCCCC(=O)O [2(p), 4-[2-[4-(4-isopropylbenzylamino)-2-methylbenzoylamino]phenoxy] butanoic acid]
33 | 220 nM | Cc1cc(NCc2ccccc2C(F)(F)F)ccc1C(=O)Nc1ccccc1OCCCC(=O)O [2(q), 4-[2-[4-(2-trifluoromethylbenzylamino)-2-methylbenzoylamino]phenoxy] butanoic]
34 | 2.5 nM | CCCc1ccc(C(Nc2ccc(C(=O)Nc3ccccc3OCCCC(=O)O)c(C)c2)c2ccc(CCC)cc2)cc1 [2(r), 4-[2-[4-[bis(4-propylphenyl)methylamino]-2-methylbenzoylamino]phenoxy] butanoic]
35 | 56 nM | CCCc1ccc(CNc2ccc(C(=O)Nc3ccccc3SCCCC(=O)O)c(C)c2)cc1 [3(a), 4-[2-[4-(4-propylbenzylamino)-2-methylbenzoylamino]phenylthio] butanoic acid]
36 | 6.5 nM | CCCc1ccc(C(Oc2ccc(C(=O)Nc3ccccc3OCCCC(=O)O)c(C)c2)c2ccc(CCC)cc2)cc1 [4(b), 4-[2-[4-[bis(4-propylphenyl)methoxy]-2-methylbenzoylamino]phenoxy]butanoic]
37 | 230 nM | O=C(O)CCCOc1ccccc1NC(=O)c1ccc(CNc2cccc3c2CCCC3)cc1 [6(b), 4-[2-[4-(5,6,7,8-tetrahydronaphthalene-1-yl)aminomethylbenzoylamino]phenoxy] butanoic]
38 | 80 nM | CC(C)Cc1ccc(COc2ccc(C(=O)Nc3ccccc3OCCCC(=O)O)cc2)cc1 [Example 1, 4-[2-[4-(4-isobutylphenylmethoxy)benzoylamino]phenoxy]butanoicacid]
